# Experimental data from patent US20260184687A1, “DIHYDROINDENE DERIVATIVES AS MALT1 INHIBITORS” (C4X Discovery Limited, priority 2022, published 2026).
# Experiments:
# [1] = system: IL-2 release from stimulated Jurkat cells; assay: Human IL-2 Release Phenotypic Assay (Assay 3); type: cell-based; settings: Jurkat cells (clone E6-1), 200 ng/mL PMA + 300 ng/mL ionomycin, IL-2 by ELISA
# Method in brief: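 Jurkat E6-1 cells in RPMI1640/10% FBS were seeded at 50 000 cells/well and incubated overnight at 37° C. Half-log compound dilutions (0.5% final DMSO) were added for 30 min, then cells were stimulated with 200 ng/mL PMA + 300 ng/mL ionomycin for 48 h. IC50 came from a 4-parameter non-linear regression fit.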
# [2] = target: MALT1-GS-Ub (6-His-hMALT-1 residues 339-715 fused to ubiquitin) (Homo sapiens, UniProt Q9UDY8); assay: biochemical;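 further: in vitro MALT1 protease assay: enzyme preincubated with compound 30 min at room temperature, then cleavage of fluorogenic Ac-LVSR-AMC substrate (100 µM) followed by fluorescence every 15 min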
# Sequence of MALT1-GS-Ub (6-His-hMALT-1 residues 339-715 fused to ubiquitin) (Q9UDY8 with tags, fused parts or gaps limits assumed): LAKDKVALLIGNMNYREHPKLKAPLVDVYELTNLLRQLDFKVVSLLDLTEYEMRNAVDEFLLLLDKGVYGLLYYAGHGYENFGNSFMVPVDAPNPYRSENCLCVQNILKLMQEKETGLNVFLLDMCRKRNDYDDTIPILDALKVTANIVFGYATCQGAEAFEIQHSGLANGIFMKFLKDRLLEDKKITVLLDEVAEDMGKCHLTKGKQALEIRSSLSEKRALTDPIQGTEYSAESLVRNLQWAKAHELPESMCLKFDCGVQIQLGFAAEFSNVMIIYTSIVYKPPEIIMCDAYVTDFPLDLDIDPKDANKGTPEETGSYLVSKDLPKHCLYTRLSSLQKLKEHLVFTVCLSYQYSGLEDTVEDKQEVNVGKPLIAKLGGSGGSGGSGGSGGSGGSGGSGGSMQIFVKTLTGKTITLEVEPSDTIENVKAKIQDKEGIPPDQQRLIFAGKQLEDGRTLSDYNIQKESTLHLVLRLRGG
# Procedure: MALT1 protease activity was assessed in vitro by measuring the cleavage of a fluorogenic tetrapeptide substrate.
# A protein (MALT1-GS-Ub) comprising 6-His-hMALT-1 (residues 339-715), fused to ubiquitin with an 8×GGS linker, was expressed in E. coli, and purified using chitin resin to remove contaminants followed by affinity chromatography purification and size-exclusion chromatography, according to standard protocols.
# Briefly, MALT1-GS-Ub (300-600 nM) was incubated with substrate (Ac-LVSR-AMC, 100 μM) in reaction buffer comprising 50 mM HEPES (pH7.0), 25 mM KCl, 0.1% (v/v) CHAPS and 1 mM TCEP.
# Test compounds dissolved in DMSO were dispensed into assay plates (384-well, black, shallow ProxiPlates). 7 μl enzyme solution was added and incubated at room temperature for 30 minutes to allow compound binding to occur. 2 μl substrate solution was then added and the fluorescence (excitation 360 nm, emission 460 nm) read every 15 minutes using a suitable plate reader. Final assay DMSO concentration was 1%. […] IC50 values were calculated using GraphPad Prism using a 4-parameter non-linear regression curve fit.
# FL hMALT1 enzyme = target: T1, FL hMALT1 enzyme (Homo sapiens, UniProt Q9UDY8); assay: biochemical;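 further: Cell-free protease assay: enzyme preincubated with compound 30 min at room temperature, then cleavage of fluorogenic Ac-LVSR-AMC substrate (100 µM) tracked by fluorescence (ex 360/em 460 nm)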
# T1 sequence (Q9UDY8 1-824): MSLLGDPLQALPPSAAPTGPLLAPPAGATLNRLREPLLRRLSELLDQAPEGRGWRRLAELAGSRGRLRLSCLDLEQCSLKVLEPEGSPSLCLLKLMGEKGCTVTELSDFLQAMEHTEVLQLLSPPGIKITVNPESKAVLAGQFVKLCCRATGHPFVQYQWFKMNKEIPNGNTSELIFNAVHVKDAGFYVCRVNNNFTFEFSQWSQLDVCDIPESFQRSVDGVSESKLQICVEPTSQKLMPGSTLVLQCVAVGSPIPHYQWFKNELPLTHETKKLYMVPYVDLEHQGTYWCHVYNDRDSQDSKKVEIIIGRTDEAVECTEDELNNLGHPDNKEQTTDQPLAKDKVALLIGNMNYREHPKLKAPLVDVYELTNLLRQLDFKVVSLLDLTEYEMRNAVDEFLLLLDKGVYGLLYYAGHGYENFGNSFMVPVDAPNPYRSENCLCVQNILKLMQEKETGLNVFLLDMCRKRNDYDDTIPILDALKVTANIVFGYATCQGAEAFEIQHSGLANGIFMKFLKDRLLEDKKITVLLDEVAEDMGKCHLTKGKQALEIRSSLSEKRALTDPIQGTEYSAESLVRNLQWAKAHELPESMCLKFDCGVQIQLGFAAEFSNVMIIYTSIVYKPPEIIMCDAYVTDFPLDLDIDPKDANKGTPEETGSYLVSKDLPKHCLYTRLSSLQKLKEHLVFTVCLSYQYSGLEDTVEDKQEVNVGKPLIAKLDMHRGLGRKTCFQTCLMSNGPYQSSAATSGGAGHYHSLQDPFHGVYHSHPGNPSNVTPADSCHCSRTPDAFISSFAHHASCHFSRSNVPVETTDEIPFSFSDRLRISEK
"IC50 ([1]; Homo sapiens, Jurkat, 48 h) [nM]",IC50 [2] [nM],IC50 (FL hMALT1 enzyme) [nM],IC50 ([1]; 48 hours) [nM],SMILES
510,210,240,,"CN(C(=O)c1cc[nH]c(=O)c1)[C@@H](c1ccc(NC2Cc3ccccc3C2(C)C)cc1)C(F)(F)F (single isomer, unassigned) [Example 20]"
,200,62,260,"CN(C(=O)c1cc[nH]c(=O)c1)[C@@H](c1ccc(NC2Cc3ccccc3C2(C)C)cc1)C(F)(F)F (single isomer, unassigned) [Example 21]"
1730,290,450,,"CN(C(=O)N1CCC(O)CC1)[C@@H](c1ccc(NC2Cc3ccccc3C2(C)C)cc1)C(F)(F)F (single isomer, unassigned) [Example 22]"
,390,330,1080,"CN(C(=O)N1CCC(O)CC1)[C@@H](c1ccc(NC2Cc3ccccc3C2(C)C)cc1)C(F)(F)F (single isomer, unassigned) [Example 23]"
,160,89,870,"CC(=O)NCCC(=O)N(C)[C@@H](c1ccc(NC2Cc3ccccc3C2(C)C)cc1)C(F)(F)F (single isomer, unassigned) [Example 24]"
,360,700,910,"CN(C(=O)c1cocn1)[C@@H](c1ccc(NC2Cc3ccccc3C2(C)C)cc1)C(F)(F)F (single isomer, unassigned) [Example 26]"
,190,180,400,"CN(C(=O)c1cocn1)[C@@H](c1ccc(NC2Cc3ccccc3C2(C)C)cc1)C(F)(F)F (single isomer, unassigned) [Example 27]"
,290,200,2610,"COCC(=O)N(C)[C@@H](c1ccc(NC2Cc3ccccc3C2(C)C)cc1)C(F)(F)F (single isomer, unassigned) [Example 28]"
,160,14,690,"COCC(=O)N(C)[C@@H](c1ccc(NC2Cc3ccccc3C2(C)C)cc1)C(F)(F)F (single isomer, unassigned) [Example 29]"
1190,130,50,,"CN(C(=O)CO)[C@@H](c1ccc(NC2Cc3ccccc3C2(C)C)cc1)C(F)(F)F (single isomer, unassigned) [Example 31]"
,200,130,5680,"COCCC(=O)N(C)[C@@H](c1ccc(NC2Cc3ccccc3C2(C)C)cc1)C(F)(F)F (single isomer, unassigned) [Example 32]"
,360,260,2480,"COCCC(=O)N(C)[C@@H](c1ccc(NC2Cc3ccccc3C2(C)C)cc1)C(F)(F)F (single isomer, unassigned) [Example 33]"
4980,170,85,,"CN(C(=O)CCO)[C@@H](c1ccc(NC2Cc3ccccc3C2(C)C)cc1)C(F)(F)F (single isomer, unassigned) [Example 34]"
,290,27,3760,"CN(C(=O)CCO)[C@@H](c1ccc(NC2Cc3ccccc3C2(C)C)cc1)C(F)(F)F (single isomer, unassigned) [Example 35]"
,380,39,1160,"CN(C(=O)C1CCS(=O)(=O)CC1)[C@@H](c1ccc(NC2Cc3ccccc3C2(C)C)nc1)C(F)(F)F (single isomer, unassigned) [Example 36]"
,240,170,3590,"CC(=O)NCC(=O)N(C)[C@@H](c1ccc(NC2Cc3ccccc3C2(C)C)cc1)C(F)(F)F (single isomer, unassigned) [Example 39]"
,230,77,1350,"CC(=O)NCC(=O)N(C)[C@@H](c1ccc(NC2Cc3ccccc3C2(C)C)cc1)C(F)(F)F (single isomer, unassigned) [Example 40]"
1040,220,19,,"CC(=O)N1CC(C)(C(=O)N(C)[C@@H](c2ccc(NC3Cc4ccccc4C3(C)C)cc2)C(F)(F)F)C1 (single isomer, unassigned) [Example 41]"

"IC50 ([1]; Homo sapiens, Jurkat, 48 h) [nM]",IC50 [2] [nM],IC50 (FL hMALT1 enzyme) [nM],IC50 ([1]; 48 hours) [nM],SMILES
,160,35,1600,"CC(=O)N1CC(C)(C(=O)N(C)[C@@H](c2ccc(NC3Cc4ccccc4C3(C)C)cc2)C(F)(F)F)C1 (single isomer, unassigned) [Example 42]"
,150,62,4040,"CC(=O)N1CC(F)(C(=O)N(C)[C@@H](c2ccc(NC3Cc4ccccc4C3(C)C)cc2)C(F)(F)F)C1 (single isomer, unassigned) [Example 43]"
,180,21,770,"CC(=O)N1CC(F)(C(=O)N(C)[C@@H](c2ccc(NC3Cc4ccccc4C3(C)C)cc2)C(F)(F)F)C1 (single isomer, unassigned) [Example 44]"
730,240,180,,"CN(C(=O)CN1CCCC1=O)[C@@H](c1ccc(NC2Cc3ccccc3C2(C)C)cc1)C(F)(F)F (single isomer, unassigned) [Example 45]"
,250,66,440,"CN(C(=O)CN1CCCC1=O)[C@@H](c1ccc(NC2Cc3ccccc3C2(C)C)cc1)C(F)(F)F (single isomer, unassigned) [Example 46]"
,170,110,2350,"CN(C(=O)CCN1CCCC1=O)[C@@H](c1ccc(NC2Cc3ccccc3C2(C)C)cc1)C(F)(F)F (single isomer, unassigned) [Example 47]"
,140,17,1160,"CN(C(=O)CCN1CCCC1=O)[C@@H](c1ccc(NC2Cc3ccccc3C2(C)C)cc1)C(F)(F)F (single isomer, unassigned) [Example 48]"
,520,220,4570,"CN(C(=O)C1CCS(=O)(=O)CC1)[C@@H](c1ccc(NC2Cc3ccc(Cl)cc3C2)cc1)C(F)(F)F (single isomer, unassigned) [Example 55]"
,150,14,93,"CN(C(=O)C1CCS(=O)(=O)CC1)[C@@H](c1ccc(NC2Cc3ccc(Cl)cc3C2)cc1)C(F)(F)F (single isomer, unassigned) [Example 56]"
,160,91,3690,"CC(=O)N1CC(OC(=O)N(C)[C@@H](c2ccc(NC3Cc4ccccc4C3(C)C)cc2)C(F)(F)F)C1 (single isomer, unassigned) [Example 57]"
,190,38,1020,"CC(=O)N1CC(OC(=O)N(C)[C@@H](c2ccc(NC3Cc4ccccc4C3(C)C)cc2)C(F)(F)F)C1 (single isomer, unassigned) [Example 58]"
2550,390,200,,"C[C@H](c1ccc(NC2Cc3ccccc3C2(C)C)cc1)N(C)C(=O)C1CCS(=O)(=O)CC1 (single isomer, unassigned) [Example 63]"
,150,12,290,"CNS(=O)(=O)CCCC(=O)N(C)[C@@H](c1ccc(NC2Cc3ccccc3C2(C)C)cc1)C(F)(F)F (single isomer, unassigned) [Example 64]"
,190,45,2240,"CNS(=O)(=O)CCCC(=O)N(C)[C@@H](c1ccc(NC2Cc3ccccc3C2(C)C)cc1)C(F)(F)F (single isomer, unassigned) [Example 65]"
,220,20,590,"CN(C(=O)CN1CC(=O)NC1=O)[C@@H](c1ccc(NC2Cc3ccccc3C2(C)C)cc1)C(F)(F)F (single isomer, unassigned) [Example 66]"
,450,78,5970,"CN(C(=O)CN1CC(=O)NC1=O)[C@@H](c1ccc(NC2Cc3ccccc3C2(C)C)cc1)C(F)(F)F (single isomer, unassigned) [Example 67]"
,190,15,120,"CN(C(=O)C1CN(S(C)(=O)=O)C1)[C@@H](c1ccc(NC2Cc3ccccc3C2(C)C)cc1)C(F)(F)F (single isomer, unassigned) [Example 68]"
,280,79,920,"CN(C(=O)C1CN(S(C)(=O)=O)C1)[C@@H](c1ccc(NC2Cc3ccccc3C2(C)C)cc1)C(F)(F)F (single isomer, unassigned) [Example 69]"
